Measurements as given in US8183230B2, “Antimicrobial preservatives to achieve multi-dose formulation using beta-cyclodextrins for liquid dosage forms” (priority 2004, dated 2012).

Columns and labels:
[1] = Calculated non-sequestered concentrations in formulations
Text: These constants were used to calculate the concentration of non-sequestered meta-cresol in the formulations tested for anti-microbial efficacy.
The appearance of a plateau at the higher concentrations is only due to the limitation in the bactericidal efficacy measurement method. As the method consists in evaluating the population not killed by the preservative, when the whole population is dead (i.e. none is detectable any more ˜100%) the figure quoted is of the form: a log reduction greater than a value usually between 3 and 5.
The formulations were analyzed for preservative effectiveness.

[2] = Equilibrium dialysis method for determining binding constants; conditions: for Keq / k: binary, SBE-CD 1.0 mM
Text: In the present invention, the method to determine binding constants utilizes equilibrium dialysis in the development of a multi-use parenteral formulation containing SBE-CD and a preservative. In particular, the method was applied in developing a parenteral formulation comprising the compound of Formula Ia, a cyclodextrin (SBE-CD) and a preservative (meta-cresol). This approach is applicable to compounds other than the compound of Formula Ia in developing parenteral formulations and is within the scope of this invention. […] The significance of this procedure is its ability to measure the binding constant of multiple compounds competing for binding with the cyclodextrin. The experimental dialysis data also provides an easily interpreted representation of binding in the formulation by visualizing the degree of interaction by the equilibrium established following dialysis.
Equilibrium dialysis permits calculation of binding constants by modeling the resultant diffusion rate across a semi-permeable membrane with an equilibrium end point. Equilibrium dialysis is performed by allowing the substrate in a solution containing bound substrate and ligand in a donor compartment of an equilibrium dialysis apparatus (cell) to equilibrate over time with an acceptor compartment. Ono, N., Hirayama, F., Arima, H., Uekama, K. “Determination of Stability Constant of β-Cyclodextrin Complexes Using the Membrane Permeation Technique and the Permeation Behavior of Drug Competing Agent-β-Cyclodextrin Ternary Systems” Eur. J. Pharm. Sci. 1999 9:133-139. The acceptor cell contains no ligand. The membrane is semi-permeable allowing the typically low molecular weight substrates to freely diffuse, while the cyclodextrin (MW=2163) remains in the donor compartment. Sampling from both compartments over time yields a time-concentration profile of substrate in both the donor and acceptor compartments of the dialysis cell.
A mathematical model describing the diffusion rate of drug across the membrane can be derived for systems containing two or more components in solution. The dialysis rate and binding constant for the substrates are obtained by resolving the equation using nonlinear curve fitting software. Depending on the interactions between the components it is possible to describe the competitive binding that occurs in the solution. The equilibrium binding constant is a measure of the relative concentration of meta-cresol bound to SBE-CD according to the chemical equilibrium equation below: S=meta-cresol, L=SBE-CD. S:L indicates the complex formed between meta-cresol and SBE-CD.
The initial experiments established the equilibrium dialysis flux rates for compound of Formula Ia and meta-cresol across the 500 MWCO dialysis membrane. Three different concentrations of compound of Formula Ia were initially loaded into the donor side of the dialysis well. Samples were withdrawn at various time intervals and concentration of free component was measured using HPLC. […] The smoothed line was a fit to the data using the model for a unitary system presented in the discussion. The equilibrium point for all these control experiments was reached after 50% of the total drug was distributed uniformly across the donor and acceptor sides of the well. This asymptotic approach to equilibrium was modeled and the dialysis rates were calculated, Table II.
The primary method of analyzing the data was to perform calculations from equilibrium dialysis data, as described below. In particular, the rate of diffusion across the membrane was calculated using the following equations:
The rate of diffusion from the donor phase is defined by the following relationship: [D]t−[D]eq=([D]0−[D]eq)e^(−2kt) (1)
Rate of diffusion into the Acceptor Phase: [D]eq−[D]t=[D]eqe^(−2kt) (2) wherein
The basis of calculation in the presence of SBE-CD is to assume that complexation occurs only in the donor phase according to the standard complexation reaction:
The value for CyDF may be substituted into equation 8. […]

[3] = Stability measurements (accelerated stability)
Experimental: Stability Measurements. Potential lead formulations were evaluated under various accelerated stability conditions in order to assess potency and purity of compound of Formula Ia, preservative content and SBE-CD content. For example, in one accelerated stability study, potential lead formulations were placed in stability ovens to measure short-term thermal stability. […] Purity and potency assays to measure compound of Formula Ia, as well as antimicrobial preservatives and SBE-CD content, were performed using validated HPLC methodology. SBE-CD was assayed using GTP 5984.

[4] = Solubility analysis (solubility method) for binding constant with SBE-CD; conditions: for K11 (equilibrium): meta-cresol saturated solubility in varying SBE-CD; for Slope / y-intercept: meta-cresol solubility vs. SBE-CD concentration
Experimental: Traditional solubility methods were performed initially to determine the solubility and binding constants of compound of Formula Ia and preservative with SBE-CD.
Binding was calculated for meta-cresol using solubility analysis. The experiment was performed at different concentrations of compound of Formula Ia to determine if there was any effect from the presence of drug in solution on the meta-cresol binding constant. Meta-cresol solubility was measured in excess (saturated) meta-cresol and the equilibrium binding constant was calculated using the following equation:
[formula] Where St is the total solubility of meta-cresol, s0 is the inherent solubility of meta-cresol, Lt is the total concentration of SBE-CD (ligand) and K11 is the equilibrium binding constant of meta-cresol assuming a 1 to 1 binding stoichiometry.

[5] = approximate ratio 1:1, Meta-cresol 1.1 mM
[6] = approximate ratio 1:2, Meta-cresol 0.6 mM
[7] = approximate ratio 1:4, Meta-cresol 0.3 mM
[8] = Compound of Formula Ia 00.00 mM
[9] = Compound of Formula Ia 10.67 mM
[10] = Compound of Formula Ia 21.34 mM
[11] = Compound of Formula Ia 42.67 mM

## Cc1cccc(O)c1 [meta-cresol]
[1]; for preservative effectiveness in drug/cyclodextrin/preservative formulations
  minimum concentration of non sequestered preservative: 2.1 mg/mL
[1]; preferred formulation: 10 mgA/mL compound, 63 mg/mL SBE-CD, 3.3 mg/mL meta-cresol, pH 4.4
  calculated non-sequestered concentration: 2.8 mg/mL
[2]; [5]
  Keq: 88 M⁻¹
  k: 1.984 h⁻¹
[2]; [6]
  Keq: 75 M⁻¹
  k: 2.182 h⁻¹
[2]; [7]
  Keq: 85 M⁻¹
  k: 2.761 h⁻¹
[2]; equilibrium dialysis method, binary systems, drug ±352 M−1, n=3, preservative ±7 M−1
  binding constant with SBE-CD: 83 M⁻¹
[2]; ternary systems of SBE-CD, drug and preservative at the ratios tested, equilibrium profile
  binding of preservative to cyclodextrin in ternary systems: not bound to cyclodextrin
[3]
  stability in the formulation (in words): excellent stability
[3]; 5° C., 1 week, Amber-Treated, 3 mg/mL meta-cresol, 100 mg/mL SBE-CD, 10 mgA/mL compound of Formula Ia
  CONTENT (% INTENT): 102 % INTENT
[3]; 5° C., 1 week, Amber-Untreated, 3 mg/mL meta-cresol, 100 mg/mL SBE-CD, 10 mgA/mL compound of Formula Ia
  CONTENT (% INTENT): 102 % INTENT
[3]; 5° C., 3 weeks, Amber-Treated, 3 mg/mL meta-cresol, 100 mg/mL SBE-CD, 10 mgA/mL compound of Formula Ia
  CONTENT (% INTENT): 104 % INTENT
[3]; 5° C., 3 weeks, Amber-Untreated, 3 mg/mL meta-cresol, 100 mg/mL SBE-CD, 10 mgA/mL compound of Formula Ia
  CONTENT (% INTENT): 103 % INTENT
[3]; 5° C., 6 weeks, Amber-Treated, 3 mg/mL meta-cresol, 100 mg/mL SBE-CD, 10 mgA/mL compound of Formula Ia
  CONTENT (% INTENT): 104 % INTENT
[3]; 5° C., 6 weeks, Amber-Untreated, 3 mg/mL meta-cresol, 100 mg/mL SBE-CD, 10 mgA/mL compound of Formula Ia
  CONTENT (% INTENT): 102 % INTENT
[3]; 5° C., 12 weeks, Amber-Treated, 3 mg/mL meta-cresol, 100 mg/mL SBE-CD, 10 mgA/mL compound of Formula Ia
  CONTENT (% INTENT): 98 % INTENT
[3]; 5° C., 12 weeks, Amber-Untreated, 3 mg/mL meta-cresol, 100 mg/mL SBE-CD, 10 mgA/mL compound of Formula Ia
  CONTENT (% INTENT): 98 % INTENT
[3]; 50° C., 1 week, Amber-Treated, 3 mg/mL meta-cresol, 100 mg/mL SBE-CD, 10 mgA/mL compound of Formula Ia
  CONTENT (% INTENT): 99 % INTENT
[3]; 50° C., 1 week, Amber-Untreated, 3 mg/mL meta-cresol, 100 mg/mL SBE-CD, 10 mgA/mL compound of Formula Ia
  CONTENT (% INTENT): 100 % INTENT
[3]; 50° C., 3 weeks, Amber-Treated, 3 mg/mL meta-cresol, 100 mg/mL SBE-CD, 10 mgA/mL compound of Formula Ia
  CONTENT (% INTENT): 103 % INTENT
[3]; 50° C., 3 weeks, Amber-Untreated, 3 mg/mL meta-cresol, 100 mg/mL SBE-CD, 10 mgA/mL compound of Formula Ia
  CONTENT (% INTENT): 101 % INTENT
[3]; 50° C., 6 weeks, Amber-Treated, 3 mg/mL meta-cresol, 100 mg/mL SBE-CD, 10 mgA/mL compound of Formula Ia
  CONTENT (% INTENT): 104 % INTENT
[3]; 50° C., 6 weeks, Amber-Untreated, 3 mg/mL meta-cresol, 100 mg/mL SBE-CD, 10 mgA/mL compound of Formula Ia
  CONTENT (% INTENT): 102 % INTENT
[3]; 50° C., 12 weeks, Amber-Treated, 3 mg/mL meta-cresol, 100 mg/mL SBE-CD, 10 mgA/mL compound of Formula Ia
  CONTENT (% INTENT): 100 % INTENT
[3]; 70° C., 1 week, Amber-Treated, 3 mg/mL meta-cresol, 100 mg/mL SBE-CD, 10 mgA/mL compound of Formula Ia
  CONTENT (% INTENT): 100 % INTENT
[3]; 70° C., 1 week, Amber-Untreated, 3 mg/mL meta-cresol, 100 mg/mL SBE-CD, 10 mgA/mL compound of Formula Ia
  CONTENT (% INTENT): 100 % INTENT
[3]; 70° C., 2 weeks, Amber-Treated, 3 mg/mL meta-cresol, 100 mg/mL SBE-CD, 10 mgA/mL compound of Formula Ia
  CONTENT (% INTENT): 103 % INTENT
[3]; 70° C., 2 weeks, Amber-Untreated, 3 mg/mL meta-cresol, 100 mg/mL SBE-CD, 10 mgA/mL compound of Formula Ia
  CONTENT (% INTENT): 103 % INTENT
[3]; 70° C., 3 weeks, Amber-Treated, 3 mg/mL meta-cresol, 100 mg/mL SBE-CD, 10 mgA/mL compound of Formula Ia
  CONTENT (% INTENT): 100 % INTENT
[3]; 70° C., 3 weeks, Amber-Untreated, 3 mg/mL meta-cresol, 100 mg/mL SBE-CD, 10 mgA/mL compound of Formula Ia
  CONTENT (% INTENT): 102 % INTENT
[3]; 70° C., 6 weeks, Amber-Treated, 3 mg/mL meta-cresol, 100 mg/mL SBE-CD, 10 mgA/mL compound of Formula Ia
  CONTENT (% INTENT): 101 % INTENT
[3]; 70° C., 6 weeks, Amber-Untreated, 3 mg/mL meta-cresol, 100 mg/mL SBE-CD, 10 mgA/mL compound of Formula Ia
  CONTENT (% INTENT): 101 % INTENT
[3]; 70° C., 12 weeks, Amber-Treated, 3 mg/mL meta-cresol, 100 mg/mL SBE-CD, 10 mgA/mL compound of Formula Ia
  CONTENT (% INTENT): 100 % INTENT
[3]; 70° C., 12 weeks, Amber-Untreated, 3 mg/mL meta-cresol, 100 mg/mL SBE-CD, 10 mgA/mL compound of Formula Ia
  CONTENT (% INTENT): 100 % INTENT
[3]; ICH Photostability, 1X ICH UV/FI, Amber-Treated, 3 mg/mL meta-cresol, 100 mg/mL SBE-CD, 10 mgA/mL compound of Formula Ia
  CONTENT (% INTENT): 102 % INTENT
[3]; ICH Photostability, 1X ICH UV/FI, Amber-Untreated, 3 mg/mL meta-cresol, 100 mg/mL SBE-CD, 10 mgA/mL compound of Formula Ia
  CONTENT (% INTENT): 102 % INTENT
[3]; after 12 weeks at 70° C., relative to 1 week at 5° C., 3 mg/mL meta-cresol, 100 mg/mL SBE-CD, 10 mgA/mL compound of Formula Ia
  loss / potency decrease: 2%
[3]; pH 4.4, 10% SBE-CD, 10 mgA/mL compound of Formula Ia
  ACCEPTABLE STABILITY: ✓
[4]; average over Compound of Formula Ia 00.00 to 42.67 mM
  Average Binding Constant: 27.59 M⁻¹
[4]; [8]
  K11 (equilibrium): 24.53 M⁻¹
  Slope: 0.46
  y-intercept: 34.06 mM
[4]; [9]
  K11 (equilibrium): 25.78 M⁻¹
  Slope: 0.46
  y-intercept: 33.15 mM
[4]; [10]
  K11 (equilibrium): 35.46 M⁻¹
  Slope: 0.53
  y-intercept: 32.15 mM
[4]; [11]
  K11 (equilibrium): 24.59 M⁻¹
  Slope: 0.43
  y-intercept: 31.15 mM
[4]; solubility method, SBE-CD
  equilibrium binding constant, averaged across the studies: 27.6 M⁻¹
[4]; solubility method, n=1
  binding constant with SBE-CD: 28 M⁻¹
